pKi: −log10 of the molar value. Ends that are not written are not given here.

The target of one assay is T1, rat MCH1 receptor (Rattus norvegicus, UniProt P97639).
T1 construct: expressed in transfected cells
Description: Binding affinity (Ki) at the rat MCH1 receptor. The settings on record: Examples 142-153; read-out: Ki (nM) rMCH1.

The subject of assay [1] is micturition reflex, anesthetized female Sprague Dawley rats. The experiment in a line: Distension-induced rhythmic contraction (DIRC) model. Format: in vivo, rat. Set-up: key: A = Produced a significant increase in contraction interval relative to pre-drug interval. The settings on record: contraction interval, i.v. or i.p. The protocol: The effects of compounds on the micturition reflex were assessed in the “distension-induced rhythmic contraction” (DIRC), as described in previous publications (e.g. Maggi et al, 1987; Morikawa et al, 1992), and Continuous Slow Transvesicular Infusion (CSTI) models in rats.
Female Sprague Dawley rats weighing approximately 300 g were anesthetized with subcutaneous urethane (1.2 g/kg). The trachea was cannulated with PE240 tubing to provide a clear airway throughout the experiment. A midline abdominal incision was made and the left and right ureters were isolated. The ureters were ligated distally (to prevent escape of fluids from the bladder) and cannulated proximally with PE10 tubing. The incision was closed using 4-0 silk sutures, leaving the PE10 lines routed to the exterior for the elimination of urine. The bladder was canulated via the transurethral route using PE50 tubing inserted 2.5 cm beyond the urethral opening. This cannula was secured to the tail using tape and connected to a pressure transducer. To prevent leakage from the bladder, the cannula was tied tightly to the exterior urethral opening using 4-0 silk.
To initiate the micturition reflex, the bladder was first emptied by applying pressure to the lower abdomen, and then filled with normal saline in […] (maximum 2 ml) until spontaneous bladder contractions occurred (typically 20-40 mmHg at a rate of one contraction every 2 to 3 minutes. Once a regular rhythm was established, vehicle (saline) or Test Compounds were administered i.v. or i.p. to explore their effects on bladder activity. The 5-HT1A antagonist WAY-100635 was given as a positive control. Data were expressed as contraction interval (in seconds) before drug application (basal), or after the application of vehicle or test article.

Assay [2] concerns micturition reflex, conscious male Sprague Dawley rats. The experiment in a line: Continuous Slow Transvesicular Infusion (CSTI) rat model. Format: in vivo. Set-up: key to Effect of MCH1 antagonist in the CSTI model: B = Produced an increase in bladder capacity in rats relative to baseline capacity. The settings on record: bladder capacity, intragastric.
A further assay concerns the target human MCH1 receptor (Homo sapiens, UniProt Q99705). The experiment in a line: Binding of [125I]Phe13,Tyr19-MCH on MCH1-transfected Cos-7 cell membranes. Set-up: expressed in transfected cells; host or cells: COS-7. The settings on record: 0.1 nM radioligand. The protocol: For binding assays, pellets of transfected cells are suspended in ice-cold buffer (20 mM Tris.HCl, 5 mM EDTA, pH 7.4) and homogenized by sonication for 7 sec. The cell lysates are centrifuged at 200×g for 5 min at 4° C. The supernatants are then centrifuged at 40,000×g for 20 min at 4° C. The resulting pellets are washed once in the homogenization buffer and suspended in binding buffer (see methods for radioligand binding). Protein concentrations are determined by the method of Bradford (1976) using bovine serum albumin as the standard. Binding assays are usually performed immediately, however it is possible to prepare membranes in batch and store frozen in liquid nitrogen for future use.
MCH1 binding experiments with membranes (20-40 μg membrane protein) from transfected cells are performed with 0.1 nM [^125I]Phe^13-Tyr^19-MCH (Custom labeled by NEN) using incubation buffer consisting of 50 mM Tris pH 7.4, 10MM MgCl2, 2 μg/ml aprotonin, 0.5 mM PMSF and 50 μg/ml bacitracin. Binding is performed at 25° C. for 1 hr. Incubations are terminated by rapid vacuum filtration over GF/C glass fiber filters, presoaked in 5% PEI using 50 mM Tris pH 7.4 containing 0.01% triton X-100 as wash buffer.
Specific [^125I]Phe^13-Tyr^19-MCH binding was about 70% of total binding at a radioligand concentration of 0.1 nM (FIG. 10).

Assay [3] relates to MCH binding sites of G4F-7 cells. The settings on record: cited from earlier work.

Chain of human MCH1 receptor (Q99705 whole entry): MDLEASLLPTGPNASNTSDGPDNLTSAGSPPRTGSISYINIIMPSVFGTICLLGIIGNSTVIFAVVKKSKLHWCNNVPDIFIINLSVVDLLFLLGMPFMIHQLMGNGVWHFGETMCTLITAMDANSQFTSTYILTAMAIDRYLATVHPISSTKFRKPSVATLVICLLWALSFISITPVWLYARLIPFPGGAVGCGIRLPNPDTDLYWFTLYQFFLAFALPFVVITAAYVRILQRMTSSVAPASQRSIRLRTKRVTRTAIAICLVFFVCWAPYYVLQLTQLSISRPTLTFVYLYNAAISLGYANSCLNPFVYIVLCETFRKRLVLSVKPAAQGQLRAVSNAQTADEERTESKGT
T1 sequence (P97639 whole entry): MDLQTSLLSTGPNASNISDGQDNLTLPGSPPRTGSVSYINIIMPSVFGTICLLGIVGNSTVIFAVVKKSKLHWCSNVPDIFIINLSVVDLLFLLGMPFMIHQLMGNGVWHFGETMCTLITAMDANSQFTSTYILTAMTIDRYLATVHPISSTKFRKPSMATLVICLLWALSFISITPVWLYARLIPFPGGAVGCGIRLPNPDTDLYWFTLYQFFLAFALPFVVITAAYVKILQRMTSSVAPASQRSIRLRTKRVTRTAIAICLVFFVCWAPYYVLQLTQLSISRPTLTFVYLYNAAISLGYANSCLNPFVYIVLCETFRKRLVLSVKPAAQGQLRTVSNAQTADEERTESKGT

A word on the Ki: it is a measure of affinity in units of concentration, obtained from inhibition or displacement. Turning to `CC(=O)c1cccc(O[C@H](CCN2CCC(c3cccc(NC(=O)C(C)C)c3)CC2)c2ccccc2)c1` [Example 151], the Ki on rat MCH1 receptor was 3.8 nM. For the same molecule, the “Effect of MCH1 antagonist in the DIRC model” value in assay [1] was “A”. In addition, in assay [2], the “Effect of MCH1 antagonist in the CSTI model” value was “B”.
Turning to “[^125I]Phe^13-Tyr^19-MCH: radioiodinated MCH analogue, custom labeled by NEN, radioligand of the MCH1 binding experiments”, the “specific binding as share of total binding” value with human MCH1 receptor was “about 70 % of total binding”. Also, the specific binding result with human MCH1 receptor (MCH1-transfected cells) is on record as “about 80 fmol/mg membrane protein”.
What is called pKi is −log10 of the Ki, conventionally taken in molar units. With “rat ANF: rat ANF, weakly inhibited binding of the radioiodinated MCH analogue (SLRRSSCFGGRIDRIGAQSGLGCNSFRY; ends and bridges not checked; cysteine pairing not given here; UniProt P01161 123-150, looked up)”, the pKi in assay [3] (inhibition of binding of the radioiodinated ligand) is 6.94.
α-MSH: the “inhibition of binding of the radioiodinated ligand” value in assay [3] is reported as “not inhibited”.

Source of the values: patent US20040038855A1 (priority 1999, published 2004).
